Results on two compounds are retold here after patent US11166462B2, “Fungicidal compound, fungicide composition and preparation and use thereof” (Zhejiang Udragon Bioscience Co., Ltd., priority 2016, dated 2021).

Values after ≈ are worked out from the molar mass of the structure shown.

A word on the EC50: it is the concentration that produces a half-maximal response. Low readings indicate a more potent agent, high ones a less potent agent. By melting point is commonly meant the temperature of the solid-liquid transition.

Series [1] relates to Pseudoperonospora cubensis. The series is described as follows: Spore suspension spray inoculation method on pot-cultured cucumber seedlings (cucumber downy mildew). The class given is in vivo. As to conditions: for EC50: Pseudoperonospora cubensis, against cucumber downy mildew, from regression of control effect at 6.25-100 mg/L; for control effect against cucumber downy mildew (in words): at 200 mg/L concentration; for Control effect (%) Cucumber downy mildew: concentration 200 mg/L; for Control effect (%) Cucumber downy mildew / Control effect (%): 5% EC diluted with water containing 1% Tween 80; for Control effect (%): cucumber downy mildew, investigated after 5 d. Here is the method:
Test Object: Pseudoperonospora cubensis Test design: the compound in a structure expressed by formula (I) (Y14078), the compound in a structure expressed by formula (II) (Y14079), and a reference chemical amisulbrom are prepared with DMF into 5% emulsifiable concentrate (hereafter abbreviated as EC) respectively, and then the EC is diluted with water containing 1% Tween 80 to 5 concentration gradients, i.e., 100, 50, 25, 12.5, and 6.25 mg/L. Each process is repeated for 4 times. Test method: the biological activity of the formulation is measured with a spore suspension spray inoculation method. Pot-cultured cucumber seedlings in the same growth state in the 1-leaf and 1-heart stage (with the growing point removed) are selected, sprayed with the formulation, and dried naturally. After 24 h, spores on the back side of the leaf infected by the disease is picked with a writing brush dipped with distilled water, and are prepared into spore suspension (2-3×10^5 spores/ml), the spore suspension is sprayed uniformly with an inoculating sprayer (at 0.1 MPa pressure) to the leaves of cucumbers, and then the inoculated cucumber seedlings are moved into a climatic chamber (relative humidity: 100%, temperature: 20° C., light-dark cycle time: 14 h/10 h) and cultured. After 24 h, the relative humidity is maintained at about 90% for induction; after 5 d, grading and investigation are carried out on the basis of the disease situation of the blank control group, and the control effect (%) is calculated according to the disease severity index. Investigation Method and Grading Criteria: Level 0: free from disease; Level 1: disease speckle area accounts for 5% or less of the total area of the leaf; Level 3: disease speckle area accounts for 6%-10% of the total area of the leaf; Level 5: disease speckle area accounts for 11%-25% of the total area of the leaf; Level 7: disease speckle area accounts for 26%-50% of the total area of the leaf; Level 9: disease speckle area accounts for 50% or more of the total area of the leaf. Effect Calculation: Disease index=Σ(quantity of leaves at all levels×relative level value)×100/(total quantity of leaves×9); Control effect (%)=(disease index of the control group−disease index of treated group)×100/disease index of control group Test design: the compound in a structure expressed by formula (I) (Y14078) and the compound in a structure expressed by formula (II) (Y14079) are prepared with DMF into 5% emulsifiable concentrate (hereafter abbreviated as EC) respectively, and then the EC is diluted with water containing 1% Tween 80 to prepare 200 mg/L formulation. Each process is repeated for 4 times. Test method for Pseudoperonospora cubensis: the biological activity of the formulation is measured with a spore suspension spray inoculation method. Pot-cultured cucumber seedlings in the same growth state in the 1-leaf and 1-heart stage (with the growing point removed) are selected, sprayed with the formulation, and dried naturally. After 24 h, spores on the back side of the leaf infected by the disease is picked with a writing brush dipped with distilled water, and are prepared into spore suspension (2-3×10^5 spores/[…]), the spore suspension is sprayed uniformly with an inoculating sprayer (at 0.1 MPa pressure) to the leaves of cucumbers, and then the inoculated cucumber seedlings are moved into a climatic chamber (relative humidity: 100%, temperature: 20° C., light-dark cycle time: 14 h/10 h) and cultured. After 24 h, the relative humidity is maintained at about 90% for induction; after 5 d, grading and investigation are carried out on the basis of the disease situation of the blank control group, and the control effect (%) is calculated according to the disease severity index. 2. […]

For the next series, the system named is Rhizoctonia solani. The series is described as follows: Fungus cake inoculation on pot-cultured seedlings (rice sheath blight). The format is in vivo. As to conditions: for control effect against rice sheath blight (in words): at 200 mg/L concentration; for Control effect (%) Rice sheath blight: concentration 200 mg/L, 5% EC diluted with water containing 1% Tween 80. Here is the method: Test Object: Pseudoperonospora cubensis, Rhizoctonia Solani Test design: the compound in a structure expressed by formula (I) (Y14078) and the compound in a structure expressed by formula (II) (Y14079) are prepared with DMF into 5% emulsifiable concentrate (hereafter abbreviated as EC) respectively, and then the EC is diluted with water containing 1% Tween 80 to prepare 200 mg/L formulation. Each process is repeated for 4 times. Test method for Rhizoctonia solani: two pot-cultured seedlings in the same growth state in the true leaf stage are selected, sprayed with the formulation and then dried, and fungus cakes are attached to the leaves with the hypha side facing the leave. The seedlings are kept in a dark environment at 22-26° C. moisturizing for 24 h, and then the natural lighting is recovered, and the seedlings are cultured for about 4 days. After the disease is developed extensively in the control group, the diameter of the disease speckle at each inoculated site is measured with callipers, and the control effect is calculated. 2.

`CN(C)S(=O)(=O)n1cnc(S(=O)(=O)Oc2ccc3ccccc3c2Br)n1` [Compound Y14078] had an EC50 in series [1] of 12.2 µg/mL (≈ 26.5 µM). In addition, the “control effect against cucumber downy mildew (in words)” value in series [1] is recorded as “especially remarkable”. In addition, the “Control effect (%) Cucumber downy mildew” value in series [1] is on record as 100%. Also, the “Control effect (%)” value is reported as 35.56% in series [1] (concentration 6.25 mg/L); 49.97% in series [1] (concentration 12.5 mg/L); 67.27% in series [1] (concentration 25 mg/L); 76.24% in series [1] (concentration 50 mg/L); 87.58% in series [1] (concentration 100 mg/L). Further, the “control effect against rice sheath blight (in words)” value with Rhizoctonia solani is listed as “good control effect”. In the series with Rhizoctonia solani, the “Control effect (%) Rice sheath blight” value was 52.5%.

In turn, `CN(C)S(=O)(=O)n1cnc(S(=O)(=O)Oc2ccc(Oc3ccccc3)cc2)n1` [Compound Y14079] had a melting point of 141 to 143 °C. Besides, in series [1], the concentration for a half-maximal effect (EC50) is 13.6 µg/mL (≈ 32 µM), the “control effect against cucumber downy mildew (in words)” value is recorded as “especially remarkable” and the “Control effect (%) Cucumber downy mildew” value is 100%. Besides, the “Control effect (%)” value in series [1] (concentration 6.25 mg/L) was 31.21%. Also, the “Control effect (%)” value in series [1] (concentration 12.5 mg/L) is 47.79%. The “Control effect (%)” value in series [1] (concentration 25 mg/L) was 59.89%. For the same compound, the “Control effect (%)” value in series [1] (concentration 50 mg/L) stood at 85.56%. In addition, the “Control effect (%)” value in series [1] (concentration 100 mg/L) was determined as 94.63%. In the series with Rhizoctonia solani, the “control effect against rice sheath blight (in words)” value is “good control effect” and the “Control effect (%) Rice sheath blight” value is given as 67.5%.
